Assay results as given in patent publication US11458138B2 (Novartis AG, priority 2017, dated 2022).

Experiments:
Cyr61 mRNA in liver = assay: In vivo treatment of mice: quantitative RT-PCR, Cyr61; conditions: mouse liver, single oral dose 30 mg/kg, 2 h post-dose, relative to vehicle, mean+/-SEM
Method: (§1) All animal studies were carried out in accordance with federal, state, local and institutional guidelines governing the use of laboratory animals in research. Male C57BL/6J mice (age 8-10 weeks) were purchased from Jackson Labs (Bar Harbor, Me.). Example 46 was formulated for oral dosing at 3 mg/ml, and Example 261 at 1 mg/ml, in a suspension of methylcellulose:Tween80:Water (0.5:0.5:99). Single oral dose of either compound was at 10 mL/kg body weight. Blood and liver tissue were collected under deep anesthesia (isoflurane) at either 2 h post-dose (for mRNA analysis) or 24 h post-dose (for immunohistochemistry).
(§2) Total liver RNA was isolated from tissue after storage in RNAlater reagent (Qiagen), using a TRIzol method according to the manufacturer's instructions (Life Technologies). Relative mRNA abundance was measured by quantitative RT-PCR using TaqMan gene expression assays and reagents according to standard protocols (Applied Biosystems). Mouse probes for YAP target genes were CTGF (Mm01192933_g1) and Cyr61 (Mm00487498_m1). […] Relative changes in mRNA were calculated by the ΔΔCt method. Changes in gene expression with compound treatment are expressed as fold-change relative to the vehicle group.

[1] = tested on: YAP nuclear translocation in HaCaT cells; assay: YAP Translocation Assay (HaCaT Cells); assay type: cell-based, human; conditions: Homo sapiens, 24 hours
Method in brief: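 HaCaT cells (20,000/well) in DMEM + 10% FBS were plated overnight at 37° C, then exposed to compound for 24 h at 37° C. Cells were fixed with PFA, permeabilized with 0.1% Triton/1.5% BSA and imaged by high-content imaging.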

CTGF mRNA in liver = assay: In vivo treatment of mice: quantitative RT-PCR, CTGF; conditions: mouse liver, single oral dose 30 mg/kg, 2 h post-dose, relative to vehicle, mean+/-SEM
Method: as §1, §2

[2] = tested on: Phospho-YAP (SER127) in liver tissue; assay: In vivo treatment of mice: Phospho-YAP (pYAP) HTRF in liver tissue; conditions: mouse liver, single oral dose 30 mg/kg
Method: as §1
Frozen liver tissue was transferred into a Lysing Matrix tube (MP, cat #6913-500) with a 1:50 solution of Protease inhibitor (Sigma-Aldrich, cat #P8340) in Phosphosafe extraction buffer (Novagen, cat #71296-3) and homogenized using the FastPrep-24 (MP biomedicals). […] The protein concentration was measured using the BCA Protein Assay Kit (Pierce cat. 23227) following the manufacturer's protocol. […] The same input quantity was used for each sample, based on total protein content (30-60 ug per sample per well). […] Plates were read on an EnVision (PerkinElmer) with emission wavelengths of 665 nm & 620 nm. The HTRF signal ratio was calculated as Signal(665 nm)/Signal(620 nm))×10000 as specified in the manufacturer's protocol. […]

[3] = tested on: Ki67-positive hepatocytes; assay: In vivo treatment of mice: immunohistochemistry (IHC) for Ki67 in liver; conditions: mouse liver, single oral dose 30 mg/kg, 24 h post-dose, relative to vehicle, mean+/-SEM
Method: as §1
Liver tissue was fixed in 10% neutral buffered formalin for 24-48 h. Processing and embedding in paraffin was by standard procedures. Sections were cut at 5 microns thickness and stained using a Ventana automated system. Primary antibody for mouse Ki67 was a rabbit IgG (Bethyl Labs). Ki67-positive hepatocytes were quantified by image analysis using the HALO platform. At least 3 sections per animal were analyzed, from the middle of the medial lobe.

LATS1 = LATS1 (Homo sapiens (Human), UniProt O95835); assay: LATS1 biochemical assay (Table 1A, Compound Examples 1-290; method in the earlier part)
Chain of LATS1 (O95835 whole entry, looked up): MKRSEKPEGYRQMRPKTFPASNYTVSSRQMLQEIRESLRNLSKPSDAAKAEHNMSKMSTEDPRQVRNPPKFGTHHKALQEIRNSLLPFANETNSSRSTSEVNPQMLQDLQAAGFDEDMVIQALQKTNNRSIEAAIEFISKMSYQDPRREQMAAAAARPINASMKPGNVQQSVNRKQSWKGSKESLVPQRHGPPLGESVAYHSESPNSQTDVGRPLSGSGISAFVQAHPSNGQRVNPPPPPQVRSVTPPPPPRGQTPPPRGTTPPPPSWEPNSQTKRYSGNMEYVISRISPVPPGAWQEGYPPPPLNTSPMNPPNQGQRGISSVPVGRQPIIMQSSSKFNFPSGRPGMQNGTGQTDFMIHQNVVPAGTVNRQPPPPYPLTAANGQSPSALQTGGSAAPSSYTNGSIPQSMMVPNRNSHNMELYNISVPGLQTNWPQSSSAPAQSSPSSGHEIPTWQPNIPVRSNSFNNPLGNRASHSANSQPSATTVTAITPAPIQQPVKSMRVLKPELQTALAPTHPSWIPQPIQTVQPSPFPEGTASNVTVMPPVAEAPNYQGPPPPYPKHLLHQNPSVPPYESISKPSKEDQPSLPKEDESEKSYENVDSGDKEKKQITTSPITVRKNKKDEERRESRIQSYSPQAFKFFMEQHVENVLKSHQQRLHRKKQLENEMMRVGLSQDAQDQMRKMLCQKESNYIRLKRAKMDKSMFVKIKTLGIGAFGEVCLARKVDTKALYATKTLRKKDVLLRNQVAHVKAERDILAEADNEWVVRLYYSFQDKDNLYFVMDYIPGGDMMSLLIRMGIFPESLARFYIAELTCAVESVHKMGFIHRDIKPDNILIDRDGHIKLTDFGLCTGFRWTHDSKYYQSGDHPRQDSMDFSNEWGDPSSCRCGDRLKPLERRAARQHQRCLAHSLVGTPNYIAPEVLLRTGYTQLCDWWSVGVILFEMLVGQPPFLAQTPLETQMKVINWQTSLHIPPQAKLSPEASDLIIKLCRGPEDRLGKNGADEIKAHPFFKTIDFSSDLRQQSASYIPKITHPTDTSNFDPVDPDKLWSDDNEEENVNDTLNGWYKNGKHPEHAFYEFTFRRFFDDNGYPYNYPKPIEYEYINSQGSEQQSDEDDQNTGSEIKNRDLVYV
Chain of LATS1 (Q7L9L4 whole entry partner, looked up): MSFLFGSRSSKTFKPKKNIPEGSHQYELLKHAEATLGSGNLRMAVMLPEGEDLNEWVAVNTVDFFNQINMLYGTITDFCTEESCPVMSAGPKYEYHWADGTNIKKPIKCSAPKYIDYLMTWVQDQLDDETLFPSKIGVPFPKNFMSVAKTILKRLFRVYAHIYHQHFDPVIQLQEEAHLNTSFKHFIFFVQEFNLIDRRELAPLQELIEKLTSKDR

limbal stem cells (LSCs) = assay: Differentiation of expanded LSCs into corneal epithelium cells (p63alpha / keratin 12); assay type: cell-based, human; conditions: transferred to conditions that enable differentiation
Source text: Shown are views where the transition from the p63alpha-positive cell identity to the keratin-12 identity are occurring.
These characteristics can be observed by immunohistochemistry or FACS.

[4] = tested on: corneal endothelium cell population; assay: FACS analysis of expanded corneal endothelium cell population (CD73, CD44, CD166, CD105); assay type: cell-based, human; conditions: vs CECs cultured without LATS inhibitor (high levels)
Source text: FIG. 21: FACS analysis of the corneal endothlelium cell population expanded in the presence of the LATS inhibitor, compound ex. 47, and CECs cultured in the absence of a LATS inhibitor. The cell population expanded in the presence of the LATS inhibitor expresses low levels of CD73 (FIG. 21a, grey line), CD44 (FIG. 21b, grey line), CD166 (FIG. 21c, grey line) and CD105 (FIG. 21d, grey line); while the cell population cultured without the LATS inhibitor expresses high levels of CD44, CD73, CD105 and CD166 (black lines).
(4) The cells express relatively low levels of CD73. The relative expression levels are lower than cells which have undergone endothelial to mesenchymal transition. The expression of CD73 may be estimated by standard techniques known in the art, such as for example FACS analysis or immunohistochemistry.

Structure (SMILES) | Cyr61 mRNA (fold-change) (Cyr61 mRNA in liver) | EC50 [1] | CTGF mRNA (fold-change) (CTGF mRNA in liver) | pYAP (% of control) [2] | Ki67 IHC (fold-change) [3] | IC50 (LATS1) | differentiation of expanded LSCs into corneal epithelium cells (keratin 12) (limbal stem cells (LSCs)) | expression of CD73, CD44, CD166 and CD105 by FACS [4]
c1cc(-c2nc(NCCCc3nnn[nH]3)c3ccncc3n2)ccn1 [Example 46, 2-(pyridin-4-yl)-N-[3-(1H-1,2,3,4-tetrazol-5-yl)propyl]pyrido[3,4-d]pyrimidin-4-amine] | 3.5 (+/−0.5) fold-change | > 20 µM | 2.1 (+/−0.4) fold-change | 64 % of control | 3.3 (+/−0.2) fold-change | > 2.5 µM | – | –
CC(N(C)c1nc(-c2ccncc2)nc2cnccc12)C(F)(F)F (racemic) [Example 47, N-methyl-2-(pyridin-4-yl)-N-(1,1,1-trifluoropropan-2-yl)pyrido[3,4-d]pyrimidin-4-amine] | – | – | – | – | – | – | can differentiate into corneal epithelium cells | low levels
